# Laboratory results published in patent US8859549B2, “Potassium channel modulators” (AbbVie, Inc., priority 2011, dated 2014).
# Molecular target: T1, KCNQ 2/3 channels (Homo sapiens, UniProt O43525+O43526)
# T1 construct: expressed in transfected cells; host or cells: HEK293
# Test: KCNQ 2/3 channel activation, thallium flux FLIPR assay (BTC-AM dye)
# Format: cell-based
# Conditions: for Emax: HEK293, maximum response relative to the response of 10 μM retigabine (set at 100%), read-out: % MAX; for EC50: HEK293 cells stably expressing human KCNQ2 and KCNQ3 subunits, thallium-induced fluorescence, 4 min compound incubation
# Procedure: The following example describes the assay that can be used to identify compounds that activate KCNQ 2/3 channels.
# HEK293 cells stably expressing human KCNQ2 and KCNQ3 subunits were seeded in 96-well, black-walled, clear-bottomed, poly-D-lysine coated plates (BD Biosciences, Bedford, Mass.) at a density of 1×10^5 cells per well 24 hours before the assay. On the assay day, BTC-AM dye (Invitrogen, Carlsbad, Calif.) was loaded into the cells by replacing the cell culture medium with 55 μL/well of 3 μg/mL dye in DPBS. Dye loading was allowed to proceed for 2 hours at room temperature and then cells were washed twice with 50 μL/well of assay buffer (in mM: 10 HEPES pH 7.3, 5 glucose, 140 Na-gluconate, 2.5 K-gluconate, 3.6 Ca-gluconate, 2 MgSO4, 0.1 Ouabain) to remove unloaded dye. Cells were incubated in 50 μL of assay buffer before loading onto a FLIPR system (Molecular Devices, Sunnyvale, Calif.). Various concentrations of compounds to be assayed were added to the cells in 50 μL of assay buffer and incubated for 4 minutes. The fluorescence signal was initiated by adding 100 μL of assay buffer containing 6 mM TlNO3 and 10 mM K2SO4. Fluors were excited using the 488-nm line of an argon laser and emission was filtered using a 540±30 nm bandpass filter. Fluorescent signals were recorded for 3 minutes. Sums of the responses over basal responses were plotted versus concentrations of test compounds to obtain an EC50 value. The maximum response for each test compound was determined relative to the response produced by 10 μM retigabine. The maximum response of retigabine at 10 μM was set at 100%.
Compound,Emax (HEK293 KCNQ2/KCNQ3 cells) [%],EC50 [nM],"% MAX (maximum response relative to the response of 10 μM retigabine (set at 100%), HEK293 KCNQ2/KCNQ3 cells) [%]"
"O=C(CC1CC2CCC1C2)Nn1nc(S(=O)(=O)c2ccccc2)c2ccccc2c1=O (racemic) [Example 70, (±)-2-[(exo)-bicyclo[2.2.1]hept-2-yl]-N-[1-oxo-4-(phenylsulfonyl)phthalazin-2(1H)-yl]acetamide]",179,13.1,–
"NC(=O)c1cc(-c2nn(NC(=O)CC3CC4CCC3C4)c(=O)c3ccccc23)ccn1 (racemic) [Example 72, (±)-4-(3-{[(exo)-bicyclo[2.2.1]hept-2-ylacetyl]amino}-4-oxo-3,4-dihydrophthalazin-1-yl)pyridine-2-carboxamide]",13.7,–,–
"COC(=O)c1cc(-c2nn(NC(=O)CC3CC4CCC3C4)c(=O)c3ccccc23)ccn1 (racemic) [Example 74, (±)-methyl 4-(3-{[(exo)-bicyclo[2.2.1]hept-2-ylacetyl]amino}-4-oxo-3,4-dihydrophthalazin-1-yl)pyridine-2-carboxylate]",21.8,–,–
"O=C(CC1CC2CCC1C2)Nn1nc(-c2ccnc(C(=O)O)c2)c2ccccc2c1=O (racemic) [Example 75, (±)-4-(3-{[(exo)-bicyclo[2.2.1]hept-2-ylacetyl]amino}-4-oxo-3,4-dihydrophthalazin-1-yl)pyridine-2-carboxylic acid]",183,4120,–
"CC1CN(c2nn(NC(=O)CC3CC4CCC3C4)c(=O)c3ccccc23)CC(C)O1 (racemic) [Example 90, (±)-2-[(exo)-bicyclo[2.2.1]hept-2-yl]-N-{4-[(cis)-2,6-dimethylmorpholin-4-yl]-1-oxophthalazin-2(1H)-yl}acetamide]",–,141,196
"O=C(CC1CC2CCC1C2)Nn1nc(N2CCSCC2)c2ccccc2c1=O (racemic) [Example 93, (±)-2-[(exo)-bicyclo[2.2.1]hept-2-yl]-N-[1-oxo-4-(thiomorpholin-4-yl)phthalazin-2(1H)-yl]acetamide]",229,78.2,–
"CC(C)(C)OC(=O)c1nn(NC(=O)CC2CC3CCC2C3)c(=O)c2ccccc12 (racemic) [Example 94, (±)-tert-butyl 3-{[(exo)-bicyclo[2.2.1]hept-2-ylacetyl]amino}-4-oxo-3,4-dihydrophthalazine-1-carboxylate]",201,76.7,–
"O=C(CC1CC2CCC1C2)Nn1nc(C(=O)N2CCOCC2)c2ccccc2c1=O (racemic) [Example 95, (±)-2-[(exo)-bicyclo[2.2.1]hept-2-yl]-N-[4-(morpholin-4-ylcarbonyl)-1-oxophthalazin-2(1H)-yl]acetamide]",73,–,–
"O=C(CC1CC2CCC1C2)Nn1nc(CNC(=O)OCc2ccccc2)c2ccccc2c1=O (racemic) [Example 96, (±)-benzyl[(3-{[(exo)-bicyclo[2.2.1]hept-2-ylacetyl]amino}-4-oxo-3,4-dihydrophthalazin-1-yl)methyl]carbamate]",79.4,315,–
"O=C(CC1CC2CCC1C2)Nn1nc(Cc2ccncc2)c2ccccc2c1=O (racemic) [Example 97, (±)-2-[(exo)-bicyclo[2.2.1]hept-2-yl]-N-[1-oxo-4-(pyridin-4-ylmethyl)phthalazin-2(1H)-yl]acetamide]",173,2700,–
"CC(C)(C)OC(=O)N1CCN(C(=O)c2nn(NC(=O)CC3CC4CCC3C4)c(=O)c3ccccc23)CC1 (racemic) [Example 98, (±)-tert-butyl 4-[(3-{[(exo)-bicyclo[2.2.1]hept-2-ylacetyl]amino}-4-oxo-3,4-dihydrophthalazin-1-yl)carbonyl]piperazine-1-carboxylate]",140,4970,–
"CC(C)(C)NC(=O)c1nn(NC(=O)CC2CC3CCC2C3)c(=O)c2ccccc12 (racemic) [Example 99, (±)-3-{[(exo)-bicyclo[2.2.1]hept-2-ylacetyl]amino}-N-tert-butyl-4-oxo-3,4-dihydrophthalazine-1-carboxamide]",177,206,–
"O=C(CC1CC2CCC1C2)Nn1nc(Cc2cc[n+]([O-])cc2)c2ccccc2c1=O (racemic) [Example 100, (±)-2-[(exo)-bicyclo[2.2.1]hept-2-yl]-N-{4-[(1-oxidopyridin-4-yl)methyl]-1-oxophthalazin-2(1H)-yl}acetamide]",53.4,916,–
"O=C(CC1CC2CCC1C2)Nn1nc(C(O)c2ccccc2)c2ccccc2c1=O (racemic) [Example 102, (±)-2-[(exo)-bicyclo[2.2.1]hept-2-yl]-N-{4-[hydroxy(phenyl)methyl]-1-oxophthalazin-2(1H)-yl}acetamide]",212,894,–
"O=C(CC1CC2CCC1C2)Nn1nc(C(=O)Nc2ccc(Cl)cc2)c2ccccc2c1=O (racemic) [Example 108, (±)-3-{[(exo)-bicyclo[2.2.1]hept-2-ylacetyl]amino}-N-(4-chlorophenyl)-4-oxo-3,4-dihydrophthalazine-1-carboxamide]",155,2040,–
"O=C(CC1CC2CCC1C2)Nn1nc(C(=NO)c2ccccc2)c2ccccc2c1=O (racemic) [Example 120, (±)-2-[(exo)-bicyclo[2.2.1]hept-2-yl]-N-{4-[(Z)-(hydroxyimino)(phenyl)methyl]-1-oxophthalazin-2(1H)-yl}acetamide]",136,3180,–
"CC(C)(C)OC(=O)NC(c1ccccc1)c1nn(NC(=O)CC2CC3CCC2C3)c(=O)c2ccccc12 (racemic) [Example 179, tert-butyl(±)-[(3-{[(exo)-bicyclo[2.2.1]hept-2-ylacetyl]amino}-4-oxo-3,4-dihydrophthalazin-1-yl)(phenyl)methyl]carbamate]",185,267,–
"O=C(CC1CC2CCC1C2)Nn1nc(N2CCS(=O)(=O)CC2)c2ccccc2c1=O (racemic) [Example 190, (±)-2-[(exo)-bicyclo[2.2.1]hept-2-yl]-N-[4-(1,1-dioxidothiomorpholin-4-yl)-1-oxophthalazin-2(1H)-yl]acetamide]",74.3,10600,–
"O=C(CC1CC2CCC1C2)Nn1nc(Sc2ccc(Br)cc2)c2ccccc2c1=O (racemic) [Example 200, (±)-2-[(exo)-bicyclo[2.2.1]hept-2-yl]-N-{4-[(4-bromophenyl)sulfanyl]-1-oxophthalazin-2(1H)-yl}acetamide]",180,23.2,–
"O=C(CC1CC2CCC1C2)Nn1nc(S(=O)(=O)c2ccc(Br)cc2)c2ccccc2c1=O (racemic) [Example 204, (±)-2-[(exo)-bicyclo[2.2.1]hept-2-yl]-N-{4-[(4-bromophenyl)sulfonyl]-1-oxophthalazin-2(1H)-yl}acetamide]",164,24,–
"O=C(CC1CC2CCC1C2)Nn1nc(SCc2ccccc2)c2ccccc2c1=O (racemic) [Example 214, (±)-N-[4-(benzylsulfanyl)-1-oxophthalazin-2(1H)-yl]-2-[(exo)-bicyclo[2.2.1]hept-2-yl]acetamide]",197,21.7,–
"O=C(CC1CC2CCC1C2)Nn1nc(S(=O)(=O)Cc2ccccc2)c2ccccc2c1=O (racemic) [Example 217, (±)-N-[4-(benzylsulfonyl)-1-oxophthalazin-2(1H)-yl]-2-[(exo)-bicyclo[2.2.1]hept-2-yl]acetamide]",147,74.8,–
